Data set [1] can be described thus: Drug interaction summary: effect of co-administered drugs on maribavir pharmacokinetics (Tables 1-A, 1-B). The following applies: concomitant drug with maribavir; observed and predicted. From the text: Drug interaction studies were summarized based on Example 2 and other available data (e.g., in vitro and clinical data).
Data set [2] can be described thus: Drug interaction summary: effect of maribavir 400 mg twice daily on co-administered drug pharmacokinetics (Tables 1-A, 1-C). It is filed as in vivo, human. To be noted: for Effect on Concentration (of concomitant drug): concomitant drug with maribavir, observed and predicted; for Geometric Mean Ratio of co-administered drug PK with/without maribavir (No Effect = 1.00), AUC / Geometric Mean Ratio of co-administered drug PK with/without maribavir (No Effect = 1.00), Cmax: digoxin 0.5 mg single dose.

On the set-up of data set [3]: species or system human. The following applies: in vivo. From the text:
Accumulated data have shown that maribavir is metabolized primarily in the liver, and renal clearance is a minor route (representing less than 5 percent). VP 44469 (N-dealkylated Maribavir) was the principal metabolite of maribavir in both urine and feces. In plasma, unchanged maribavir and VP 44469 represented approximately 69% and 9.8% of total radioactivity, respectively. The hepatic metabolism of maribavir was primarily driven by cytochrome P450s. CYP3A4 and CYP1A2 were responsible for 70 to 85% and 15 to 30% of the CYP-driven pathways, respectively. Glucuronidation accounted for less than 20% of metabolism.
Distribution models evaluated included a full PBPK model and a minimal PBPK model, both of which consider liver and intestinal metabolism. Mass balance data from the [^14C] ADME study indicated a fraction absorbed of 0.83 or greater following oral administration of 400 mg dose of maribavir. Absorption models evaluated included a simple first-order absorption model and a more mechanistic “Advanced Dissolution Absorption and Metabolism” (ADAM) model.

[4] abbreviates: in the presence of 400 mg twice daily maribavir, tacrolimus stable dose twice daily.

As for `NC(=O)N1c2ccccc2C=Cc2ccccc21` [Carbamazepine, reference compound], the “Effect on Concentration (of maribavir)” value in data set [1] is listed as “↓Maribavir”. Regarding `CO[C@H]1C[C@@H]2CC[C@@H](C)[C@@](O)(O2)C(=O)C(=O)N2CCCC[C@H]2C(=O)O[C@H]([C@H](C)C[C@@H]2CC[C@@H](OCCO)[C@H](OC)C2)CC(=O)[C@H](C)/C=C(\C)[C@@H](O)[C@@H](OC)C(=O)[C@H](C)C[C@H](C)/C=C/C=C/C=C/1C` [Everolimus], the “Effect on Concentration (of concomitant drug)” value (“Effect … (of concomitant drug)” below) in data set [2] is “↑Everolimus”. Turning to `CCC1(c2ccccc2)C(=O)NC(=O)NC1=O` [Phenobarbital, reference compound], the “Effect on Concentration (of maribavir)” value in data set [1] was “↓Maribavir”.

Regarding `O=C1NC(=O)C(c2ccccc2)(c2ccccc2)N1` [Phenytoin, reference compound], the “Effect on Concentration (of maribavir)” value in data set [1] is “↓Maribavir”. The same measure, in the same setting: the entry for `CO[C@H]1/C=C/O[C@@]2(C)Oc3c(C)c(O)c4c(c3C2=O)C2=NC3(CCN(CC(C)C)CC3)NC2=C(NC(=O)/C(C)=C\C=C\[C@H](C)[C@H](O)[C@@H](C)[C@@H](O)[C@@H](C)[C@H](OC(C)=O)[C@@H]1C)C4=O` [Rifabutin, reference compound] is “↓Maribavir”; for `CO[C@H]1/C=C/O[C@@]2(C)Oc3c(C)c(O)c4c(O)c(c(/C=N/N5CCN(C)CC5)c(O)c4c3C2=O)NC(=O)/C(C)=C\C=C\[C@H](C)[C@H](O)[C@@H](C)[C@@H](O)[C@@H](C)[C@H](OC(C)=O)[C@@H]1C` [Rifampin, reference compound] it is “↓Maribavir”. As for `CO[C@H]1C[C@@H]2CC[C@@H](C)[C@@](O)(O2)C(=O)C(=O)N2CCCC[C@H]2C(=O)O[C@H]([C@H](C)C[C@@H]2CC[C@@H](O)[C@H](OC)C2)CC(=O)[C@H](C)/C=C(\C)[C@@H](O)[C@@H](OC)C(=O)[C@H](C)C[C@H](C)/C=C/C=C/C=C/1C` [Sirolimus], the “Effect … (of concomitant drug)” value in data set [2] is “↑Sirolimus”. Take `C=CC[C@@H]1/C=C(\C)C[C@H](C)C[C@H](OC)[C@H]2O[C@@](O)(C(=O)C(=O)N3CCCC[C@H]3C(=O)O[C@H](/C(C)=C/[C@@H]3CC[C@@H](O)[C@H](OC)C3)[C@H](C)[C@@H](O)CC1=O)[C@H](C)C[C@@H]2OC` [Tacrolimus]: the “increase of tacrolimus exposure by maribavir” value in data set [2] (co-administration with maribavir) amounted to 51%. In data set [2], the “Effect … (of concomitant drug)” value is recorded as “↑Tacrolimus”. In data set [2] (setting [4]), the “Geometric Mean Ratio of co-administered drug PK with/without maribavir (No Effect = 1.00), Ctrough” value was 1.57; the “Geometric Mean Ratio of co-administered drug PK with/without maribavir (No Effect = 1.00), AUC” value is recorded as 1.51; the “Geometric Mean Ratio of co-administered drug PK with/without maribavir (No Effect = 1.00), Cmax” value stood at 1.38. `Nc1nc2cc(Cl)c(Cl)cc2n1[C@H]1O[C@@H](CO)[C@H](O)[C@@H]1O` [VP 44469, N-dealkylated Maribavir]: the “share of total radioactivity in plasma” value in data set [3] is given as approximately 9.8%. With `C[C@H]1O[C@@H](O[C@H]2[C@@H](O)C[C@H](O[C@H]3[C@@H](O)C[C@H](O[C@H]4CC[C@@]5(C)[C@H](CC[C@@H]6[C@@H]5C[C@@H](O)[C@]5(C)[C@@H](C7=CC(=O)OC7)CC[C@]65O)C4)O[C@@H]3C)O[C@@H]2C)C[C@H](O)[C@@H]1O` [digoxin], in data set [2], the “Effect … (of concomitant drug)” value is “↑digoxin”. In data set [2] (setting [4]), the “Geometric Mean Ratio of co-administered drug PK with/without maribavir (No Effect = 1.00), AUC” value amounted to 1.21 and the “Geometric Mean Ratio of co-administered drug PK with/without maribavir (No Effect = 1.00), Cmax” value was 1.25.

These data come from patent US12447170B2, “Use of maribavir in treatment regimens” (priority 2021, dated 2025).
